Measurements taken from PMC5622025, “Synthesis and biological evaluation of tricyclic matrinic derivatives as a class of novel anti-HCV agents” (Chemistry Central Journal, 2017).
Like-named read-outs stand apart in the source and are kept apart here.

Assays:
HCV [1] = test: Anti-HCV effect in vitro, intracellular HCV RNA by real-time RT-PCR in infected Huh7.5 cells; format: cell-based, hepatitis C virus; conditions: for EC50: HCV-infected Huh7.5 cells, 72 h, real-time RT-PCR, read-out: EC50 (concentration required to inhibit HCV growth by 50%)
Method: (§1) All the target compounds were evaluated for their anti-HCV activities (EC50) and cytotoxicities (CC50) in human Huh7.5 cells using specific real-time RT-PCR assay, as described earlier. As an important indicator, the selectivity index (SI) was calculated as a ratio of CC50 to EC50. Anti-HCV ability of a given compound was estimated by combining its EC50 with SI values.
(§2) Human liver cell line Huh7.5 cells (kindly provided by Vertex Pharmaceuticals, Inc., Boston, MA) were cultured in Dulbecco’s modified eagle medium (DMEM) supplemented with 10% inactivated fetal bovine serum and 1% penicillin–streptomycin (invitrogen). Cells were digested with 0.05% trypsin-ethylene diamine tetraacetic acid (EDTA) and split twice a week.
Huh7.5 cells were seeded into 96-well or 6-well plates (Costar) at a density of 3 × 10^4 cells cm^−2. After 24 h incubation, the cells were infected with HCV viral stock (45 IU cell^−1) and simultaneously treated with the test compounds at various concentrations or solvent as control. The culture medium was removed after 72 h inoculation, the intracellular total RNA (in 96-well plates) was extracted with RNeasy Mini Kit (Qiagen), and total intracellular proteins (in 6-well plates) were extracted with Cyto-Buster Protein Extraction Reagent added with 1 mM protease inhibitor cocktail. The intracellular HCV RNA was quantified with a real time one-step reverse-transcription polymerase chain reaction (RT-PCR).

[2] = Cytotoxicity assay (MTT) in Huh7.5 cells; format: cell-based, human; conditions: human; Huh7.5 cells, 72 h, MTT; read-out: CC50 (cytotoxic concentration required to inhibit Huh7.5 cell growth by 50%)
Method: as §1, §2
(§3) Huh7.5 cells were seeded into 96-well plates (Costar) at a density of 3 × 10^4 cells cm^−2. After 24 h incubation, fresh culture medium containing test compounds at various concentrations were added. 72 h later, cytotoxicity was evaluated with 3-(4,5-dimethylthiazol-2-yl)-2,5-diphenyltetrazolium bromide (MTT).

HCV [3] = tested on: HCV; set-up: method as in PMID 23516533, PMID 20593456; conditions: earlier studies; cited from earlier work
Huh7.5 cells = test: Cytotoxicity assay (MTT) in Huh7.5 cells; format: cell-based, human; conditions: Huh7.5 cells, 72 h, MTT; read-out: CC50 (cytotoxic concentration required to inhibit Huh7.5 cell growth by 50%)
Method: as §1, §2, §3

[4] = PK study after single oral dosing; format: in vivo, SD rats; conditions: rats, single oral dosing of 25 mg kg^−1, n = 3
Kunming mice = test: Acute toxicity test, single oral dosing, 7 days monitoring; format: in vivo
Method: Each compound was given orally in a single-dosing experiment at 250, 500, 750 or 1000 mg kg^−1, respectively. The mice were closely monitored for 7 days.
Female Kunming mice with weight of 20.0 ± 1.0 g were fed with regular rodent chow and housed in an air conditioned room. The mice were randomly divided into different groups with six mice each. Each compound was given orally in a single-dosing experiment at 0, 250, 500, 750 or 1000 mg kg^−1 (ddH2O as control), respectively. The mice were closely monitored for 7 days. Body weight as well as survival was monitored.

COc1ccc(CN2C[C@@H]3CCCN4CCC[C@@H]([C@H]34)[C@H]2CCCC(=O)O)cc1 [compound 1, 12N-4-methoxylbenzyl matrinic acid]
EC50 (HCV [1]; Hepatitis C virus): 43.8 ± 3.81 µM | SI (ratio of CC50 to EC50) (HCV [1]; Huh7.5 cells): > 22.8 | CC50 at 72 h [2]: > 1000 µM | SI (anti-HCV) (HCV [3]): over 22

Cc1ccc(CN2C[C@@H]3CCCN4CCC[C@@H]([C@H]34)[C@H]2CCCCO)cc1.Cl.Cl [7b, 12N-(4-Methylbenzyl)matrinol dihydrochloride]
EC50 (HCV [1]): < 2.06 µM | CC50 (Huh7.5 cells): 252 ± 3.04 µM | AUC 0–t [4]: 2.32 µM·h | AUC 0–∞ [4]: 2.36 µM·h | Cmax [4]: 790 nM | MRT [4]: 4.47 h | Tmax [4]: 1.00 h | t1/2 [4]: 3.39 h | LD50 (Kunming mice): 392 mg/kg

COc1ccc(CN2CC3CCCN4CCCC(C2CCCCO)C34)cc1.Cl.Cl (stereo not shown) [7a, 12N-(4-Methoxybenzyl)matrinol dihydrochloride]
EC50 (HCV [1]): 2.81 ± 0.82 µM | CC50 (Huh7.5 cells): 383 ± 30.2 µM | AUC 0–t [4]: 1.55 µM·h | AUC 0–∞ [4]: 1.58 µM·h | Cmax [4]: 620 nM | MRT [4]: 3.55 h | Tmax [4]: 0.42 h | t1/2 [4]: 4.69 h | LD50 (Kunming mice): 708 mg/kg
